One assay has as its system NADPH oxidase (NOX). Briefly: NADPH oxidase activity assay (whole cell superoxide production). Format: cell-based, human. The note with it: HASMCs with PDGF-B and HAECs with VEGF-A; until concentrations increased up to 500 nM. On the procedure:
Whole cell superoxide production was measured using an enhanced luminescence system (Diogenes, National Diagnostics). For the assay, the serum-starved cells were pre-incubated with a 100 μl Diogene reagent at 37° C. for 5 minutes. After being stimulated by the indicated growth factor, chemiluminescence was detected every second for 10 minutes with a TD-20/20 Luminometer (Turner Biosystems).
When HASMCs and HAECs were stimulated with PDGF-B and VEGF-A, respectively, the NOX activity increased approximately twofold. […] Thus, it was seen that these ETP compounds function as hydrogen peroxide reductase capable of replacing PrxII in both vascular cells, but the mechanism was not the inhibition of hydrogen peroxide producer NOX.

A further assay relates to PrxII knocked down HAECs. Briefly: Intracellular hydrogen peroxide (DCF fluorescence), PrxII knocked down HAECs. Format: cell-based, human. The procedure: First, the ability of GT to eliminate intracellular hydrogen peroxide in PrxII knocked down HASMCs and HAECs was tested. The cellular hydrogen peroxide production was monitored using an oxidant-sensitive fluorescence dye (2′,7′-dihydro-chlorofluorescein diacetate, H2DCF-DA).

A further assay has as its system HAECs. It counts as cell-based, human. The note with it: up to 50 nM (100 nM for A4, A7, A9). On the procedure: For cell proliferation assay, HAECs were divided at a concentration of 4000 cells/well in a final volume of 100 μl onto a 96-well plate including a siRNA-transfection reagent mixture. After siRNA-transfected for 24 hours, the cells were serum-starved for 18 hours, and then placed in an EBM-2 basal medium supplemented with VEGF-A165 (25 ng/ml, Cat no. 293-VE, R&D systems) for additional 24 hours. The extent of cell proliferation was measured using a WST-1 cell proliferation assay kit (Roche Diagnostics, USA), and the number of cells was expressed as absorbance at 450 nm, which was averaged from 3 wells after subtracting the turbidity at 600 nm.
The cell migration assay was performed in a 24-well Transwell culture chamber (Costar; 8-μm pore size). The bottom of the filter was coated with gelatin B (1 mg/ml) and air-dried for 1 hour. HAECs (6×10^3) were added to upper chambers including siRNA-transfection complexes. After 24 hours, the siRNA-transfected HAECs were serum-starved overnight. A solution of VEGF-A (25 ng/ml) was prepared in a basal medium including 0.5% bovine serum albumin (BSA), and added to bottom chambers. The upper chamber wells were each filled with a basal medium including 0.5% BSA. The Transwell chamber was incubated for 8 hours under the condition of 37° C./5% carbon dioxide. After the incubation, the non-migrated cells at the top of the filter were removed, and the cells that migrated onto the bottom of filter were fixed and stained with 0.6% hematoxylin and 0.5% eosin. The stained cells were photographed and counted. The number of migrating cells was averaged from 3 wells.

A further assay has as its system HASMCs. Format: cell-based, human. The settings on record: up to 100 nM (200 nM for A4, A7, A9).
Assay [1] concerns yeast thioredoxin (Trx) / yeast thioredoxin reductase (TR) system. The assay can be described thus: Peroxidase activity assay (hydrogen peroxide reduction), Trx/TR system. Format: biochemical. The settings on record: 25 μM ETP compound, 30° C., NADPH oxidation at 340 nm. On the procedure: The peroxidase activity assay for the epidithiodioxopiperazine derivatives according to the present invention (hereinafter, referred to as ETP compounds) was performed according to known methods [Korean Patent No. 10-0953326]. A standard peroxidase reaction for spectrophotometric assay was carried out using a 200 μl reaction mixture of 1 mM EDTA-containing 50 mM Hepes-NaOH buffer solution (pH 7.0) including 250 μM NADPH, 3 μM yeast thioredoxin (Trx), 1.5 μM yeast thioredoxin reductase (TR), 25 μM ETP compound and […] of hydrogen peroxide. For the comparison with a glutathione (GSH)-dependent peroxidase reaction, GSH (1 mM) and yeast glutathione reductase (GSH reductase; GR) (1 Unit) were added instead of yeast Trx and TR. Each reaction was initiated by adding hydrogen peroxide, and the NADPH oxidation was monitored for 12 minutes at 30° C. according to absorbance decrease at 340 nm using an Agilent UV8453 spectrophotometer (Hewlett Packard, USA). The initial reaction rate was calculated using the linear portion of the curve and expressed as the amount of NADPH oxidized per minute.
The chemical feature of the epidithiodioxopiperazine compound of the present invention or its derivatives is the intramolecular disulfide bridge present in the epidithiodioxopiperazine ring moiety. Cellular peroxidase reduces hydrogen peroxide utilizing the electrons derived from NADPH via two electron-transfer routes, that is, Trx/TR or GSH/GR, therefore, spectrophotometric assay was performed for the hydrogen peroxide-reducing activity in the presence of each system, and the results are shown in FIGS. 1 to 5.

A further assay has as its system VEGFR2 and ERK. Briefly: VEGF-induced signaling, immunoblot, PrxII knocked down HAECs. Format: cell-based, human. The settings on record: 2 hours pretreatment, VEGF 10 minutes. On the procedure:
The cells were rinsed with an ice-cold phosphate buffered saline (PBS) solution and then lysed in an extraction buffer solution containing 20 mM Hepes (pH 7.0), 1% Triton X-100, 150 mM NaCl, 10% glycerol, 1 mM EDTA, 2 mM EGTA, 1 mM DTT, 5 mM Na3VO4, 5 mM NaF, 1 mM AEBSF, aprotinin (5 μg/ml), and leupeptin (5 μg/ml). After being centrifuged at 12,000×g, the purified cell extracts were used for immunoblotting. In order to adjust the loading, the membranes were stripped by shaking them for 30 minutes at 60° C. in 67 mM Tris (pH 6.7), 2% SDS, and 100 mM 2-mercaptoethanol solution, and reprobed with an appropriate pan antibody.
In addition, the regulatory effects of GT on the PDGFRβ- and VEGFR2-mediated signaling pathway were examined. The GT treatment in HASMCs was quite different from PDGF-induced tyrosine phosphorylation that was enhanced by the PrxII knockdown (FIG. 12a). […] Conversely, the GT treatment in HAECs restored the VEGF-dependent activation of VEGFR2 and ERK that had been diminished by the PrxII knockdown (FIG. 12b). The effects of GT in vascular cell fuction were further validated.
Lastly, the effects of GT, a representative ETP compound, on vascular cells were compared with the effects of other compounds known as anti-oxidant compounds such as N-acetylcysteine or butylated hydroxyanisole, and the results are shown in FIG. 33. Immunoblotting was performed by pretreating HAECs in which PrxII was knocked down by injecting siRNA with each compound at the concentrations indicated in the graphs for two hours, and then treating with VEGF for 10 minutes. […] These comparative experiments led the inventors of the present invention to conclude that the distinguished […] function of the ETP compounds is clearly due to the PrxII-analogous activity, and additionally to the special chemical property of the dithioketopiperazine ring.
In general terms: Immunoblotting shows a protein as a band on a membrane.

As to `CN1C(=O)[C@]23CC4=CC=C[C@H](O)[C@H]4N2C(=O)[C@@]1(CO)SS3` [gliotoxin], the NOX activity result with NADPH oxidase (NOX) is “did not inhibit”. Besides, the “basal level of intracellular hydrogen peroxide enhanced by PrxII knockdown” value with PrxII knocked down HAECs is recorded as “completely eliminated”. In addition, the “VEGF-induced proliferation and chemotactic transmigration of HAECs, impaired by PrxII knockdown” value with HAECs was “enhancement”. In the assay on HASMCs, the “proliferation and chemotactic transmigration of HASMCs in response to PDGF, enhanced by PrxII knockdown” value is reported as “gradually reduced”. Moreover, in assay [1], the “hydrogen peroxide-reducing activity in the presence of a Trx/TR system” value was 3.72 ± 0.53 nmol/min. Also, the “VEGF-dependent activation of VEGFR2 and ERK” value in the assay with VEGFR2 and ERK is on record as “restored”.

(Values after patent US10450327B2, “Epidithiodioxopiperazine compound or its derivatives, and the use thereof” (priority 2011, dated 2019).)
